Counter-ions that a name gives are not always drawn. Like-named read-outs stand apart in the source and are kept apart here.
Experiments:
Assay type in all cases: physicochemical
[1] = Kinetic solubility in water; conditions: 37° C., listed as HC1 salt Form I; for pH of supernatant: water (native pH 7.6); for Kinetic solubility: water
Experimental: (§1) Kinetic solubility testing was conducted as follows: About 40-55 mg material was weighed into a 5-mL EP pipe. 4 mL of water/bio-relevant media (SGF, FaSSIF, or FeSSIF) was added into the corresponding sample pipe (drug loading: ˜10 mg/mL calculated as freebase). The pipes were capped tightly and the material was verified to be in contact with the media. The sample vials were placed on a roller and start rolling at 37° C. (rate: 25 r/min). Samples were taken at 1, 2, 4, 24 h. For each time point, 1.0 mL of suspension was transferred into a 2-mL centrifuge tube and the samples were centrifuged. The supernatant was filtered via 0.45 μm PTFE membrane and solubility and pH were measured. An XRPD test on residual solids was conducted.

[2] = Solid-state storage stability at controlled temperature/RH; conditions: for Form change / HPLC purity on storage: 2 weeks, initial HPLC purity 99.3%
Experimental: Storage at 25° C./60% RH and at 40° C./75% RH: Compound I HCl Form I was stored at 25° C./60% RH and at 40° C./75% RH. Initial HPLC purity was 99.3%.

[3] = XRPD form evaluation of materials recovered after solubility analysis; conditions: aqueous solubility analysis, second scale up material
Experimental: The solubility of the salts/co-crystals of Compound I prepared from the second scale up process was analyzed. The materials recovered after the solubility analysis were evaluated by XRPD to observe any form changes.

Low humidity testing = test: Low humidity testing
Experimental: Low Humidity testing: Compound I HCl salt Form I was placed under N2 and checked by in situ XRPD at 20 min and 60 minutes. […] HCl salt Form I was placed under N2 bleeding for ˜60 min and TGA and DSC were measured. […] (peak temperature).

[4] = Overall solid form comparison (summary statements)
Text: The hydration behavior of Compound I HCl Form I is reversible, such that rehydration of Compound I HCl Form I returns the single, crystalline form, allowing Compound I HCl Form I be stored at ambient conditions without desiccant.

[5] = Further solubility testing of Compound I HCl Form I in solvents
[6] = Kinetic solubility in FaSSIF; conditions: listed as HC1 salt Form I
Experimental: as §1

[7] = Thermodynamic pH-solubility profile; conditions: 7 days of shaking, about 37° C. water bath
Text: A thermodynamic pH-solubility profile of Compound I HCl Form I in various buffer or non-buffer solutions is further provided in FIG. 61. FIG. 61 additionally includes the thermodynamic pH-solubility profile of Compound I free base. It is of note that no data is shown in the profile of Compound I free base below a pH of about 2.0, as Compound I free base converted to Compound I HCl Form I below a pH of about 2.0. Similarly, no data is shown in the profile of Compound I HCl Form I above a pH of about 3.0, as Compound I HCl Form I converted to Compound I free base above a pH of about 3.0.

[8] = Kinetic solubility in FeSSIF
Experimental: as §1

[9] = Slurry maturations in various solvents (form reproducibility/stability); conditions: acetonitrile, EtOAc, ethanol, IPA; cycling about 25 to about 50° C., about 4 days
Experimental: A series of slurry maturations in various solvents was performed to further analyze the form reproducibility/stability of the esylate, mesylate, HCl, and sulfate salts/co-crystals of Compound I. The solvents chosen were acetonitrile, EtOAc, ethanol, and IPA. The input materials were the salts/co-crystals of Compound I formed via the second scale up process. About 20 mg of each sample was charged to reflux tubes and heated with temperature cycling between about 25 and about 50° C. for about 4 days. The resulting materials were isolated by filtration and dried in vacuo at about 40° C. The results of the slurry maturations for the resulting HCl and mesylate salts/co-crystals are presented in subsections (a)-(d) below. The data for the resulting esylate and sulfate salts/co-crystals of Compound have been omitted due to notable form variation.

[10] = Kinetic solubility in SGF; conditions: listed as HC1 salt Form I
Experimental: as §1

CCS(=O)(=O)N1CCN(c2ccc(Nc3ncc(C(N)=O)c(NC4CC4)n3)cc2)CC1 [Compound I HCl Form I, 4-(cyclopropylamino)-2-(4-(4-(ethylsulfonyl)piperazin-1-yl)phenylamino)pyrimidine-5-carboxamide]
pH of supernatant ([1]; 1 h): 3.1 | pH of supernatant ([1]; 2 h): 2.9 | pH of supernatant ([1]; 4 h): 3.0 | pH of supernatant ([1]; 24 h): 2.9 | Kinetic solubility ([1]; 1 h): 220 µg/mL | Kinetic solubility ([1]; 2 h): 250 µg/mL | Kinetic solubility ([1]; 4 h): 180 µg/mL | Kinetic solubility ([1]; 24 h): 180 µg/mL | Form change / HPLC purity on storage ([2]; 25° C./60% RH): No form change or decrease in purity by HPLC | Form change / HPLC purity on storage ([2]; 40° C./75% RH): No form change or decrease in purity by HPLC | Form change on storage (XRPD, TGA and DSC) ([2]; powder, about 6 months, about 40° C./75% RH, open dish): did not exhibit any form change | Form change on solubility analysis (XRPD post vs pre) [3]: no form change | Form under N2 by in situ XRPD (Low humidity testing; N2 bleeding for 20 min, 10.2% RH): A new form was observed | Form after re-exposure to ambient conditions (Low humidity testing; after N2 bleeding): converted back to HCl salt Form I quickly | Stability relative to the other solid forms / salts of Compound I [4]: most physico-chemically stable solid form | Stability relative to the other solid forms / salts of Compound I ([4]; listed as Compound I mono-HCl Form I): superior thermodynamically stability | Stability of the solid form ([4]; room temperature, ambient conditions): stable | solubility ([5]; 1,4-dioxane, organic solvent or mixture): < 2100 µg/mL | solubility ([5]; 2-MeTHF, organic solvent or mixture): < 2100 µg/mL | solubility ([5]; ACN, organic solvent or mixture): < 2200 µg/mL | solubility ([5]; ACN/H2O, 4:1 (v/v), organic solvent or mixture): 2900 to 3800 µg/mL | solubility ([5]; Acetone/H2O, 4:1 (v/v), organic solvent or mixture): < 1900 µg/mL | solubility ([5]; CHCl3, organic solvent or mixture): < 2300 µg/mL | solubility ([5]; CPME, organic solvent or mixture): < 2000 µg/mL | solubility ([5]; DCM, organic solvent or mixture): < 2100 µg/mL | solubility ([5]; DMSO, organic solvent or mixture): > 36000 µg/mL | solubility ([5]; EtOAc, organic solvent or mixture): < 2000 µg/mL | solubility ([5]; EtOH, organic solvent or mixture): < 2200 µg/mL | solubility ([5]; EtOH/H2O, 4:1 (v/v), organic solvent or mixture): < 2000 µg/mL | solubility ([5]; IPA, organic solvent or mixture): < 1900 µg/mL | solubility ([5]; IPAc, organic solvent or mixture): < 2300 µg/mL | solubility ([5]; MIBK, organic solvent or mixture): < 2300 µg/mL | solubility ([5]; MTBE, organic solvent or mixture): < 2000 µg/mL | solubility ([5]; MeOH, organic solvent or mixture): 1900 to 6300 µg/mL | solubility ([5]; MeOH/DCM, 1:1 (v/v), organic solvent or mixture): 6800 to 12500 µg/mL | solubility ([5]; MeOH/H2O, 4:1 (v/v), organic solvent or mixture): < 2000 µg/mL | solubility ([5]; NMP, organic solvent or mixture): 4000 to 6700 µg/mL | solubility ([5]; THF, organic solvent or mixture): < 1900 µg/mL | solubility ([5]; THF/H2O, 4:1 (v/v), organic solvent or mixture): 2000 to 2500 µg/mL | solubility ([5]; acetone, organic solvent or mixture): < 2200 µg/mL | solubility ([5]; anisole, organic solvent or mixture): < 2300 µg/mL | solubility ([5]; n-heptane, organic solvent or mixture): < 1900 µg/mL | solubility ([5]; toluene, organic solvent or mixture): < 2100 µg/mL | Solubility (mg/mL) 1 h ([6]; FaSSIF, 37° C., 1 h, drug loading ~10 mg/mL as freebase): 0.012 mg/mL | Solubility (mg/mL) 2 h ([6]; FaSSIF, 37° C., 2 h): 0.013 mg/mL | Solubility (mg/mL) 4 h ([6]; FaSSIF, 37° C., 4 h): 0.013 mg/mL | Solubility (mg/mL) 24 h ([6]; FaSSIF, 37° C., 24 h): 0.011 mg/mL | pH 1 h ([6]; supernatant, FaSSIF (native pH 6.5), 1 h): 5.4 | pH 2 h ([6]; supernatant, FaSSIF (native pH 6.5), 2 h): 5.1 | pH 4 h ([6]; supernatant, FaSSIF (native pH 6.5), 4 h): 5.2 | pH 24 h ([6]; supernatant, FaSSIF (native pH 6.5), 24 h): 4.6 | pH range in which Compound I HCl Form I converted to Compound I free base [7]: > 3.0 | Kinetic solubility in FeSSIF (qualitative) ([8]; 37° C.): favorable kinetic solubility | Solubility (mg/mL) 1 h ([8]; 37° C., 1 h, drug loading ~10 mg/mL as freebase, listed as HC1 salt Form I): 0.049 mg/mL | Solubility (mg/mL) 2 h ([8]; 37° C., 2 h, listed as HC1 salt Form I): 0.031 mg/mL | Solubility (mg/mL) 4 h ([8]; 37° C., 4 h, listed as HC1 salt Form I): 0.010 mg/mL | Solubility (mg/mL) 24 h ([8]; 37° C., 24 h, listed as HC1 salt Form I): 0.0072 mg/mL | Final Form 2 h, 4 h, 24 h ([8]; XRPD of residual solids, 2 h, 4 h, 24 h): Freebase Form II | pH 1 h ([8]; supernatant, 1 h, listed as HC1 salt Form I): 4.9 | pH 2 h ([8]; supernatant, 2 h, listed as HC1 salt Form I): 4.7 | pH 4 h ([8]; supernatant, 4 h, listed as HC1 salt Form I): 4.7 | pH 24 h ([8]; supernatant, 24 h, listed as HC1 salt Form I): 4.5 | Form after slurry maturation (XRPD) [9]: does not experience any form change | Solubility (mg/mL) 1 h ([10]; SGF, 37° C., 1 h, drug loading ~10 mg/mL as freebase): 0.041 mg/mL | Solubility (mg/mL) 2 h ([10]; SGF, 37° C., 2 h): 0.039 mg/mL | Solubility (mg/mL) 4 h ([10]; SGF, 37° C., 4 h): 0.036 mg/mL | Solubility (mg/mL) 24 h ([10]; SGF, 37° C., 24 h): 0.035 mg/mL | Final Form ([10]; XRPD of residual solids, SGF, 1 h, 2 h, 4 h, 24 h): HC1 salt Form I | pH 1 h ([10]; supernatant, SGF (native pH 1.8), 1 h): 1.9 | pH 2 h ([10]; supernatant, SGF (native pH 1.8), 2 h): 1.9 | pH 4 h ([10]; supernatant, SGF (native pH 1.8), 4 h): 2.0 | pH 24 h ([10]; supernatant, SGF (native pH 1.8), 24 h): 2.0
